“Also recorded” adds a separate entry of the source. Read-outs that look alike come from different tables or passages of the source.
How the values were obtained:
in vivo [1] = assay type: in vivo, Sprague-Dawley rats; details: for concentration at 5 days: Sprague-Dawley, rat, in vivo, 2 mg/kg per day
in vivo [2] = assay type: in vivo, Sprague-Dawley rats
Protocol: Rats consumed the concentrations of DNP or ERDNP specified in the text orally, mixed in peanut butter. All rats used for the kinetics studies consumed the entirety of the peanut butter and protonophore within 2 minutes.
DNP concentrations were measured in plasma, liver, kidney, WAT, quadriceps, heart, and brain of Sprague-Dawley rats by LC/MS/MS (Perry, et al., 2013, Cell. Metab. 18:740-8). Rats treated with DNP were sacrificed 1 hour after treatment with DNP, and those treated with ERDNP were sacrificed 8 hours after treatment, as these were the times determined in the plasma DNP studies to represent the peak plasma DNP concentrations (FIGS. 21A-21B). The minimal detection limit of the method was determined to be […], as this was the minimum concentration of solutions of known quantities of DNP in DMSO measured by the method with less than 20% error in each of three replicates.
LC/MS/MS method development and analysis were performed on the Applied Biosystems 4000 QTRAP (Foster City, Calif.), equipped with a Shimadzu ultra fast liquid chromatography (UFLC) system. Electrospray ionization (ESI) source with negative-ion detection was shown as the most sensitive for both qualitative and quantitative analysis of DNP. The quantitative analysis of DNP was monitored in MRM mode with an ion pair (183.0/109.0). The preferred parameters are: curtain gas 25; collision gas 9, probe temperature 480° C.; […]; ion source gas 2 25; declustering potential (DP) −45 V; entrance potential (EP) −10 V; collision energy (CE) −35 V and collision cell exit potential −12 V.
Plasma samples (10-100 μL) were mixed with 2.0 ml pre-chilled chloroform/methanol (v/v: 2/1) containing 0.01% BHT in 5 ml glass vials, to which was added 250 μl water together with 10 nmol DNP-D3 and 10 nmol DNPME-D6 as the internal standards. The mixtures were vortexed for 10 seconds before centrifugation at 4000 rpm for 10 min. The bottom organic layer was carefully collected and dried with a steady stream of nitrogen gas. The residual was reconstituted in 200 μl methanol for LC/MS/MS analysis for DNP and/or DNPME metabolites.
Frozen tissue samples (˜100 mg) were weighed and suspended in 2 ml microcentrifuge tubes with 1.6 ml pre-chilled chloroform/methanol (v/v: 2/1) containing 0.01% BHT and one metal bead, and then added 10 nmol DNP-d3 (Cambridge Isotopes, Andover, Mass.) as the internal standards. The tissue samples were disrupted with Qiagen TissueLyser at 30 Hz for 15 min, and then transferred into 5 ml glass vials, followed by addition of 0.5 ml chloroform and 250 μl water into each samples. The samples were centrifuged at 4000 rpm for 10 min after vortexed for 10 seconds. The bottom organic layer was collected and dried with a gentle flow of nitrogen. The residual was reconstituted in 200 μl methanol for LC/MS/MS analysis of DNP.

[3] = system: rat model of NAFLD and whole body insulin resistance; assay: Continuous low dose intragastric DNP infusion (2 mg/kg per day, 5 days) in high fat fed rats; assay type: in vivo
Protocol: For the intragastric DNP infusion studies, rats previously fed high fat diet for 2 weeks were placed in a Covance infusion harness attached to a single-axis counter-balanced swivel mount and a stainless steel one-channel swivel (all from Instech Solomon) to protect the catheters and allow the animals free access to the cage. DNP (2 mg/kg per day) or vehicle (10% dimethylsulfoxide/90% saline vehicle) was infused continuously through the […] for 5 days.
Plasma insulin and glucagon were measured by radioimmunoassay. Plasma glucose was measured enzymatically by the YSI Life Sciences 2700 Select Biochemistry Analyzer. Plasma concentrations of twelve inflammatory markers, adiponectin, and FGF-21 were assessed by ELISA (QIAGEN, Life Technologies, and Millipore, respectively). Liver glycogen was measured by amyloglucosidase digestion (Passonneau & Lauderdale, 1974, Anal. Biochem. 60:405-12). Non-esterified fatty acid concentrations were measured by an enzymatic kit (Wako).
(§1) Plasma triglycerides were measured using a Wako reagent. Liver and quadriceps triacylglycerol were extracted using the method of Bligh and Dyer (Bligh & Dyer, 1959, Can. J. Biochem. Physiol. 37:911-7) and quantified spectrophotometrically using a reagent from Diagnostic Chemicals Ltd. Liver and quadriceps DAG and ceramide concentrations were measured by liquid chromatography/mass spectrometry/mass spectrometry (LC/MS/MS) (Yu, et al., 2002, J. Biol. Chem. 277:50230-6), as were acylcarnitine concentrations (An, et al., 2004, Nat. Med. 10:268-74). Very low-density lipoprotein (VLDL) export was measured (Lee, et al., 2011, Hepatology 54:1650-60). Liver acetyl and malonyl CoA concentrations were measured by LC/MS/MS (Hosokawa, et al., 1986, Anal. Biochem. 153:45-9; Roughan, 1994, Biochem. J. 300:355-8).

[4] = system: two-week high fat fed rats; assay type: in vivo, rat
Protocol: ERDNP was formulated by Emerson Resources Inc. (Malvern, Pa.) with sustained-release ethylcellulose coating. Rats used for the NAFLD reversal studies were fed high fat diet for 2 weeks, at the end of which they were treated for three days with peanut butter to acclimate them to this food. They were then treated daily with ERDNP mixed in peanut butter, or peanut butter vehicle, at the doses specified in the text daily for 5 days. Zucker Diabetic Fatty rats were treated with ERDNP (1 mg/kg) in peanut butter or peanut butter vehicle daily for 14 days. Blood glucose was measured by glucometer (Abbott) from the tail vein every three days.
(§2) Alanine aminotransferase, aspartate aminotransferase, and blood urea nitrogen were measured using the COBAS Mira Plus, and creatinine by LC/MS/MS. Body temperature was measured using a rectal probe (Physitemp Instruments). Histology slides were stained with hematoxylin & eosin, Sirius Red, and TUNEL stains.
as §1

rats = assay: Toxicity studies: rectal temperature, liver enzymes, BUN, creatinine, histology; assay type: in vivo, rat
Protocol: as §2
Liver and kidney samples were prepared and stained with hematoxylin & eosin by the Yale Research Histology core, and analyzed as described (Kleiner et al., 2005, Hepatology 41:1313-1321).

high fat fed rats = assay: Hepatic fluxes (VTCA, VPC, Vfa, VPDH) by [3-13C] lactate infusion, NMR-LC/MS/MS; details: rat, in vivo
Protocol: To measure total glutamate enrichment from livers of rats infused with [3-^13C] lactate, ˜100 mg frozen liver were homogenized in 400 μL ice-cold 50% acetonitrile. The samples were centrifuged at 10,000 g for 10 min, and the supernatant was isolated. After overnight storage at 4° C., the samples were centrifuged at 10,000 g for 10 min through a Nanosep 100 k Omega filter (Pall Life Sciences). The flow-through was separated on a hypercarb column (Thermo Scientific; 4.6×100 mm; 5 μm particle size) before ionization for multiple reaction monitoring analysis by LC/MS/MS (Applied Biosystems MDS SCIEX, 4000 Q-TRAP). […]
Spectra were acquired with relaxation time=1 s, dummy scans=32, and number of scans=8,192 per block×3 blocks. Correction factors for differences in T relaxation times were determined from fully relaxed spectra of natural abundance glutamate and glucose solutions. […]
Total glucose enrichment in the NMR extract was determined by derivatizing 20 μL of the NMR extract with 100 μL methanol, then drying overnight in a Speed-Vac. […]
To measure positional alanine enrichment from [3-^13C] lactate infused rat livers, liver samples were extracted for NMR as described above, and the enrichment at [2-^13C] and [3-^13C] alanine was measured by proton-observed, carbon-edited NMR as we have reported (Alves et al., 2011, Hepatology 53:1175-1181). […]

[5] = intragastric DNP 2 mg/kg per day, 5 days

Q: Which concentration at 5 days (in vivo [1]; intragastric DNP infusion 2 mg/kg per day, 5 days, rats, read-out: steady state liver DNP concentration) does the source give for O=[N+]([O-])c1ccc(O)c([N+](=O)[O-])c1 [DNP, 2,4-dinitrophenol] here?
A: Its concentration at 5 days is ~1000 nM.

Q: And the concentration at 5 days (in vivo [1]; intragastric DNP infusion 2 mg/kg per day, 5 days, rats, read-out: steady state plasma DNP concentration)?
A: Its concentration at 5 days is ~3000 nM.

Q: What about the “sustained plasma and tissue concentrations of DNP that reversed hepatic steatosis and insulin resistance” value (in vivo [1]; continuous intragastric DNP infusion, rat model of NAFLD) of the same molecule?
A: Its value is 1-3 VM.

Q: What about the “plasma DNP concentrations, fold lower than the threshold where DNP toxicity is first detected” value (in vivo [1]; continuous low dose intragastric infusion of DNP) of the same molecule?
A: The value was ~100 fold.

Q: What about the “sustained plasma and liver concentrations of DNP that reversed fatty liver and whole body insulin resistance” value (in vivo [1]; continuous low dose intragastric infusion, high fat rat model of NAFLD) of the same molecule?
A: The value was 1 to 3 µM.

Q: And the “DNP concentration in skeletal muscle” value (in vivo [1]; intragastric DNP infusion 2 mg/kg per day, 5 days, rats)?
A: Its value is “negligible”.

Q: What about the “tissue DNP concentrations after chronic treatment compared with one (or five) daily doses” value (in vivo [2]; 1 mg/kg per day, rats) of the same molecule?
A: The value was “no differences; also recorded: did not differ significantly”.

Q: And the “maximum plasma concentration of DNP, fold higher with DNP treatment than with ERDNP” value (in vivo [2]; 25 mg/kg DNP versus 1 mg/kg ERDNP)?
A: Its value is 30 fold.

Q: And the concentration at 8 hours (in vivo [2]; Sprague-Dawley, rat, in vivo, 1 mg/kg, 8 hours after the last of five daily 1 mg/kg doses (FIG. 21J), read-out: DNP concentrations in all tissues following chronic treatment)?
A: The concentration at 8 hours was < 10000 nM.

Q: What about the half-life (in vivo [2]; Sprague-Dawley, rat, in vivo, 25 mg/kg, plasma DNP, rats) of the same molecule?
A: Its half-life is 8 to 12 h.

Q: And the “peak DNP liver concentration” value (in vivo [2]; dose of DNP 5 mg/kg, rat)?
A: Its value is ~60 µM.

Q: What about the “peak plasma DNP concentration” value (in vivo [2]; dose of DNP 5 mg/kg, rat) of the same molecule?
A: The value was ~120 µM.

Q: And the “area under the plasma DNP concentration curve” value (in vivo [2]; oral, rats, 1 mg/kg ERDNP versus 25 mg/kg DNP)?
A: Its value is 4,311±555.

Q: And the “time of maximum concentration of DNP” value (in vivo [2]; plasma, rats, 1 mg/kg ERDNP versus 25 mg/kg DNP)?
A: Its value is “one”.

Q: What about the “liver enzymes, blood urea nitrogen (BUN) or creatinine” value ([3]; chronic intragastric DNP infusion 2 mg/kg per day) of the same molecule?
A: The value was “no observed changes”.

Q: And the “fasting plasma glucose and insulin concentrations” value [3, 5]?
A: Its value is “lower”.

Q: And the “reductions in liver and muscle TAG and diacylglycerol (DAG) content” value [3, 5]?
A: Its value is > 50%.

Q: And the “reductions in plasma triglycerides” value [3, 5]?
A: The value was > 80%.

Q: And the tissue ceramide content [3, 5]?
A: The tissue ceramide content was “no changes”.

Q: And the “daily doses that raised ALT” value ([4]; daily for five days)?
A: Its value is “above 2 mg/kg”.

Q: And the “daily doses that raised AST concentrations” value ([4]; daily for five days)?
A: Its value is “above 1 mg/kg”.

Q: And the “effect of the highest dose on BUN” value ([4]; daily for five days)?
A: Its value is “raised BUN”.

Q: And the “lowest effective dose to decrease liver triglyceride” value ([4]; daily for five days, two-week high fat fed rats)?
A: Its value is 5 mg/kg.

Q: What about the “ratio of toxic to therapeutic dose” value ([4]; rats) of the same molecule?
A: Its value is 0.4.

Q: And the toxic dose ([4]; rats)?
A: The toxic dose was 2 mg/kg.

Q: And the “toxic plasma threshold of DNP” value (rats; plasma concentration)?
A: The value was ~400 µM.

Q: What about the “relation between plasma DNP concentration and body temperature” value (rats; rats treated with 10-50 mg/kg DNP) of the same molecule?
A: The value was “strong correlation”.

Q: And the “concentrations of DNP found to promote subtle increases in hepatic mitochondrial uncoupling” value (high fat fed rats)?
A: Its value is 1 to 5 µM.
